Laboratory results: patent US9078444B2, “Isothiazoline derivatives as insecticidal compounds” (Syngenta Participations AG, priority 2011, dated 2015)

Experiments:
Type in all cases: in vivo
[1] = tested on: Diabrotica balteata; assay: Diabrotica balteata (corn root worm) artificial diet test; conditions: 120 h, 200 ppm (concentration in well 18 ppm), L2 larvae, larval mortality and growth regulation after 5 days
Method: (§1) Diabrotica balteata (Corn Root Worm): A 24-well microtiter plate (MTP) with artificial diet was treated with test solutions at an application rate of 200 ppm (concentration in well 18 ppm) by pipetting. After drying, the MTPs were infested with L2 larvae (6-10 per well). After an incubation period of 5 days, samples were checked for larval mortality and growth regulation.

[2] = tested on: Heliothis virescens; assay: Heliothis virescens (tobacco budworm) egg test on artificial diet; conditions: 96 h, 200 ppm (concentration in well 18 ppm), eggs on artificial diet, egg mortality, larval mortality, growth regulation after 4 days
Method: Heliothis virescens (Tobacco Budworm): Eggs (0-24 h old) were placed in 24-well microtiter plate on artificial diet and treated with test solutions at an application rate of 200 ppm (concentration in well 18 ppm) by pipetting. After an incubation period of 4 days, samples were checked for egg mortality, larval mortality, and growth regulation.

[3] = tested on: Spodoptera littoralis; assay: Spodoptera littoralis (Egyptian cotton leafworm) cotton leaf disc test; conditions: foliar, 72 h, 200 ppm sprayed on cotton leaf discs, mortality, feeding behavior, growth regulation 3 days after treatment
Method: Spodoptera littoralis (Egyptian Cotton Leafworm): Cotton leaf discs were placed on agar in a 24-well microtiter plate and sprayed with test solutions at an application rate of 200 ppm. After drying, the leaf discs were infested with […]. The samples were checked for mortality, feeding behavior, and growth regulation 3 days after treatment (DAT).

[4] = tested on: Plutella xylostella; assay: Plutella xylostella (diamond back moth) artificial diet test; conditions: 144 h, 200 ppm (concentration in well 18 ppm), L2 larvae, larval mortality and growth regulation after 6 days
Method: as §1, with “Plutella xylostella (Diamond Back Moth):” for “Diabrotica balteata (Corn Root Worm): A”, “(7-12” for “(6-10”, “6” for “5”

[5] = tested on: Thrips tabaci; assay: Thrips tabaci (onion thrips) sunflower leaf disc test; conditions: foliar, 168 h, 200 ppm sprayed on sunflower leaf discs, mixed ages, mortality after 7 days
Method: Thrips tabaci (Onion Thrips): Sunflower leaf discs were placed on agar in a 24-well microtiter plate and sprayed with test solutions at an application rate of 200 ppm. After drying, the leaf discs were infested with a thrips population of mixed ages. After an incubation period of 7 days, samples were checked for mortality.

[6] = tested on: Tetranychus urticae; assay: Tetranychus urticae (two-spotted spider mite) bean leaf disc test; conditions: foliar, 192 h, 200 ppm sprayed on bean leaf discs, mixed ages, egg, larval and adult mortality 8 days later
Excerpt: Tetranychus urticae (Two-Spotted Spider Mite): Bean leaf discs on agar in 24-well microtiter plates were sprayed with test solutions at an application rate of 200 ppm. After drying, the leaf discs are infested with mite populations of mixed ages. 8 days later, discs are checked for egg mortality, larval mortality, and adult mortality.

Measured: pest or weed control at 200 ppm

Cc1ccc(NC(=O)c2ccc(C3=NSC(c4cc(Cl)cc(Cl)c4)(C(F)(F)F)C3)cc2C)cc1 (stereo not shown) [Compound A64]
not listed: [6]
≥ 80%: all other assays above

Cc1cc(C2=NS[C@@](c3cc(Cl)cc(Cl)c3)(C(F)(F)F)C2)ccc1C(=O)N[C@@H]1CON(CC(F)(F)F)C1=O [Compound A79, 4-[(5S)-5-(3,5-dichlorophenyl)-5-(trifluoromethyl)-4H-isothiazol-3-yl]-2-methyl-N-[(4R)-3-oxo-2-(2,2,2-trifluoroethyl)isoxazolidin-4-yl]benzamide]
≥ 80%: all assays above

CCNC(=O)c1ccc(C2=NSC(c3cc(Cl)cc(Cl)c3)(C(F)(F)F)C2)cc1C (stereo not shown) [Compound A04]
≥ 80%: all assays above

COc1ccc(CNC(=O)c2ccc(C3=NSC(c4cc(Cl)cc(Cl)c4)(C(F)(F)F)C3)cc2C)cc1 (stereo not shown) [Compound A13]
≥ 80%: all assays above

Cc1cc(C2=NSC(c3cc(Cl)cc(Cl)c3)(C(F)(F)F)C2)ccc1C(=O)NCC1CCS1 (stereo not shown) [Compound A30]
≥ 80%: all assays above

Cc1cc(C2=NSC(c3cc(Cl)cc(Cl)c3)(C(F)(F)F)C2)ccc1C(=O)NCC1CCS1(=O)=O (stereo not shown) [Compound A31]
≥ 80%: all assays above

Cc1cc(C2=NSC(c3cc(Cl)cc(Cl)c3)(C(F)(F)F)C2)ccc1C(=O)NCC1CCC1 (stereo not shown) [Compound A40]
≥ 80%: all assays above

C=CCNC(=O)c1ccc(C2=NSC(c3cc(Cl)cc(Cl)c3)(C(F)(F)F)C2)cc1C (stereo not shown) [Compound A63]
≥ 80%: all assays above

Cc1cc(C2=NSC(c3cc(Cl)cc(Cl)c3)(C(F)(F)F)C2)ccc1C(=O)Nc1cc[n+]([O-])cc1 (stereo not shown) [Compound A41]
≥ 80%: [2] | [3] | [4]

Cc1cc(C2=NSC(c3cc(Cl)cc(Cl)c3)(C(F)(F)F)C2)ccc1C(=O)Nc1ncccn1 (stereo not shown) [Compound A38]
≥ 80%: all assays above

Cc1cc(C2=NSC(c3cc(Cl)cc(Cl)c3)(C(F)(F)F)C2)ccc1C(=O)NC1CCSC1=O (stereo not shown) [Compound A37]
not listed: [5]
≥ 80%: all other assays above

Cc1cc(C2=NSC(c3cc(Cl)cc(Cl)c3)(C(F)(F)F)C2)ccc1C(=O)NCC1CSC1 (stereo not shown) [Compound A28]
≥ 80%: all assays above

Cc1cc(C2=NSC(c3cc(Cl)cc(Cl)c3)(C(F)(F)F)C2)ccc1C(=O)NCCF (stereo not shown) [Compound A34]
≥ 80%: all assays above

CCCCNC(=O)c1ccc(C2=NSC(c3cc(Cl)cc(Cl)c3)(C(F)(F)F)C2)cc1C (stereo not shown) [Compound A05]
≥ 80%: all assays above

Cc1cc(C2=NSC(c3cc(Cl)cc(Cl)c3)(C(F)(F)F)C2)ccc1C(=O)NCCC(F)(F)F (stereo not shown) [Compound A07]
≥ 80%: all assays above

Cc1cc(C2=NSC(c3cc(Cl)cc(Cl)c3)(C(F)(F)F)C2)ccc1C(=O)NC1CCc2ccccc21 (stereo not shown) [Compound A50]
≥ 80%: all assays above

Cc1cc(C2=NSC(c3cc(Cl)cc(Cl)c3)(C(F)(F)F)C2)ccc1C(=O)Nc1ccccn1 (stereo not shown) [Compound A56]
not listed: [6]
≥ 80%: all other assays above

Cc1cc(C2=NSC(c3cc(Cl)cc(Cl)c3)(C(F)(F)F)C2)ccc1C(=O)Nc1ccc(C(F)(F)F)cc1 (stereo not shown) [Compound A58]
not listed: [6]
≥ 80%: all other assays above

Cc1cc(C)nc(NC(=O)c2ccc(C3=NSC(c4cc(Cl)cc(Cl)c4)(C(F)(F)F)C3)cc2C)n1 (stereo not shown) [Compound A47]
≥ 80%: [3]

Cc1cc(C2=NSC(c3cc(Cl)cc(Cl)c3)(C(F)(F)F)C2)ccc1C(=O)NC1=NCCS1 (stereo not shown) [Compound A44]
≥ 80%: [1] | [2] | [3] | [4]

CSCC(C)(C)NC(=O)c1ccc(C2=NSC(c3cc(Cl)cc(Cl)c3)(C(F)(F)F)C2)cc1C (stereo not shown) [Compound A20]
not listed: [5]
≥ 80%: all other assays above

Cc1cc(C2=NSC(c3cc(Cl)cc(Cl)c3)(C(F)(F)F)C2)ccc1C(=O)NCc1ccc(C(F)(F)F)cc1 (stereo not shown) [Compound A57]
not listed: [5]
≥ 80%: all other assays above

CCN(CC)C(=O)c1cccc(NC(=O)c2ccc(C3=NSC(c4cc(Cl)cc(Cl)c4)(C(F)(F)F)C3)cc2C)n1 (stereo not shown) [Compound A49]
not listed: [5]
≥ 80%: all other assays above
